{"source": "patent US9511134B2", "about": "“Inducing immune responses to influenza virus using polypeptide and nucleic acid compositions” (priority 2006, dated 2016)", "key": {"DRB4*0101": {"biological_target": "T1, DRB4*0101 (Homo sapiens, UniProt P01903+P13762, G164S)", "T1 construct": "made in house; host or cells: EBV-transformed homozygous human B cell lines, transfected fibroblasts or single-allele 721.221 transfectants", "assay": "biochemical", "type": "binding", "settings": "read-out: IC50 nM to purified HLA DRB4*0101; Table 4"}, "CD4+ PBMC": {"test_system": "CD4+ PBMC", "type": "cell-based, human", "settings": "IFNγ ELISPOT, PBMC rested five days, CD8-depleted"}, "DRB1*1302": {"biological_target": "DRB1*1302 (Homo sapiens, UniProt P01903+P01911, A100E/A169T/K41T/L162R/M171V/P40S/Q125H/Q178H/Q39Y/Q99D/R42S/S66N/T262R/V115G/W38E/Y61H)", "sequence (P01903 26-254 limits assumed, other chains not shown)": "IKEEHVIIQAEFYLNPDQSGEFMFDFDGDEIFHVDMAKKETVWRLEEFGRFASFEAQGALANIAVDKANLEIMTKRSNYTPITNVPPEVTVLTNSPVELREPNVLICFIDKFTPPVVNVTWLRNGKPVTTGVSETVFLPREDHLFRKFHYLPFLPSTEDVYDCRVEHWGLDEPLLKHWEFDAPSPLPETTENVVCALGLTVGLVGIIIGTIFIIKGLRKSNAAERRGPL", "assay": "biochemical", "type": "binding", "settings": "read-out: IC50 nM to purified HLA DRB1*1302"}, "DRB1*0701": {"biological_target": "DRB1*0701 (Homo sapiens, UniProt P01903+P01911, A100R/A102G/A103Q/D57E/D86V/E43K/F76Y/K127E/L162R/M171V/P40G/Q125H/Q99D/R33Q/R42Y/R54Q/S133A/S66F/T210M/V115G/Y107V/Y59L/Y89S)", "assay": "biochemical", "type": "binding", "settings": "read-out: IC50 nM to purified HLA DRB1*0701; Table 4"}, "DRB1*0901": {"biological_target": "DRB1*0901 (Homo sapiens, UniProt P01903+P01911, A100R/A103E/D57H/D86V/F55Y/F60I/F76Y/I96F/K127E/L162R/M171V/P40D/Q125H/Q99R/R33Q/R42F/S133A/S66N/T210M/V115G/W38K/Y107V/Y59G/Y89S)", "assay": "biochemical", "type": "binding", "settings": "read-out: IC50 nM to purified HLA DRB1*0901"}, "DRB5*0101": {"biological_target": "T2, DRB5*0101 (Homo sapiens, UniProt P01903+Q30154)", "T2 construct": "made in house; host or cells: EBV-transformed homozygous human B cell lines, transfected fibroblasts or single-allele 721.221 transfectants", "assay": "biochemical", "type": "binding", "settings": "read-out: IC50 nM to purified HLA DRB5*0101; Table 4"}, "DRB1*0101": {"biological_target": "T3, DRB1*0101 (Homo sapiens, UniProt P01903+P01911, A100R/D57E/F55L/F60I/F76Y/I96L/L162R/M171V/P40L/Q125E/R42F/V115G/Y59C)", "T3 construct": "made in house; host or cells: EBV-transformed homozygous human B cell lines, transfected fibroblasts or single-allele 721.221 transfectants", "assay": "biochemical", "type": "binding", "settings": "read-out: IC50 nM to purified HLA DRB1*0101"}, "DRB1*0802": {"biological_target": "DRB1*0802 (Homo sapiens, UniProt P01903+P01911, A100R/A103L/A169T/F76Y/H45Y/I96F/K41T/L162R/M171V/P40S/Q125H/Q178H/Q39Y/Q99D/R218S/R42G/S66Y/V115G/W38E)", "assay": "biochemical", "type": "binding", "settings": "read-out: IC50 nM to purified HLA DRB1*0802"}, "DRB1*1501": {"biological_target": "T4, DRB1*1501 (Homo sapiens, UniProt P01903+P01911)", "T4 construct": "made in house; host or cells: EBV-transformed homozygous human B cell lines, transfected fibroblasts or single-allele 721.221 transfectants", "assay": "biochemical", "type": "binding", "settings": "read-out: IC50 nM to purified HLA DRB1*1501"}, "DRB1*1101": {"biological_target": "DRB1*1101 (Homo sapiens, UniProt P01903+P01911, A100R/A169T/A87E/I96F/K41T/L162R/M171V/P40S/Q125H/Q178H/Q39Y/Q99D/R42S/S66Y/T262R/V115G/W38E)", "sequence (P01903 26-254 limits assumed, other chains not shown)": "as above", "assay": "biochemical", "type": "binding", "settings": "read-out: IC50 nM to purified HLA DRB1*1101"}, "DRB1*0401": {"biological_target": "T5, DRB1*0401 (Homo sapiens, UniProt P01903+P01911, A100K/A169T/F76Y/I96L/K127E/L162R/M171V/N62H/P40V/Q125Y/R42H/S133A/S149N/S66Y/V115G/V209L/W38E)", "T5 construct": "made in house; host or cells: EBV-transformed homozygous human B cell lines, transfected fibroblasts or single-allele 721.221 transfectants", "assay": "biochemical", "type": "binding", "settings": "read-out: IC50 nM to purified HLA DRB1*0401"}, "DRB1*0405": {"biological_target": "DRB1*0405 (Homo sapiens, UniProt P01903+P01911, A100R/A169T/D86S/F76Y/I96L/K127E/L162R/M171V/N62H/P40V/Q125Y/R42H/S133A/S149N/S66Y/V115G/V209L/W38E)", "assay": "biochemical", "type": "binding", "settings": "read-out: IC50 nM to purified HLA DRB1*0405"}, "DRB1*0404": {"biological_target": "DRB1*0404 (Homo sapiens, UniProt P01903+P01911, A100R/A169T/F76Y/I96L/K127E/L162R/M171V/N62H/P40V/Q125Y/R42H/S133A/S149N/S66Y/V209L/W38E)", "assay": "biochemical", "type": "binding", "settings": "read-out: IC50 nM to purified HLA DRB1*0404"}}, "note": "Like-named read-outs stand apart in the source and are kept apart here."}
{"smiles": "CC[C@H](C)[C@H](NC(=O)[C@H](CCCCN)NC(=O)[C@H](CC(N)=O)NC(=O)[C@H](C)NC(=O)[C@H](CCCCN)NC(=O)[C@H](CCC(=O)O)NC(=O)[C@H](CC(C)C)NC(=O)[C@H](Cc1ccc(O)cc1)NC(=O)[C@H](Cc1ccc(O)cc1)NC(=O)[C@@H](NC(=O)[C@H](Cc1c[nH]cn1)NC(=O)[C@@H](NC(=O)[C@H](CCC(=O)O)NC(=O)[C@H](CCCNC(=N)N)NC(=O)[C@@H](N)CCCNC(=N)N)C(C)C)[C@@H](C)CC)C(=O)O", "note": "[Flu.PA.127]", "values": [{"measurement": "IC50", "setting": "DRB4*0101", "value": 5, "unit": "nM"}, {"measurement": "Human influenza epitope-specific immune response, donor 3501", "setting": "CD4+ PBMC", "value": "Positive (Donors were considered positive for a peptide if the number of spots was over 3 times background as determined by responses to irrelevant peptides (non influenza))"}, {"measurement": "IC50", "setting": "DRB1*1302", "value": 150, "unit": "nM"}, {"measurement": "IC50", "setting": "DRB1*0701", "value": 23, "unit": "nM"}, {"measurement": "IC50", "setting": "DRB1*0901", "value": 851, "unit": "nM"}, {"measurement": "IC50", "setting": "DRB5*0101", "value": 25, "unit": "nM"}, {"measurement": "IC50", "setting": "DRB1*0101", "value": 34, "unit": "nM"}, {"measurement": "IC50", "setting": "DRB1*0802", "value": 95, "unit": "nM"}, {"measurement": "IC50", "setting": "DRB1*1501; Table 4", "value": 4.5, "unit": "nM"}, {"measurement": "IC50", "setting": "DRB1*1501", "value": 4.5, "unit": "nM"}, {"measurement": "IC50", "setting": "DRB1*1101", "value": 96, "unit": "nM"}, {"measurement": "IC50", "setting": "DRB1*0401", "value": 63, "unit": "nM"}, {"measurement": "IC50", "setting": "DRB1*0405", "value": 1490, "unit": "nM"}, {"measurement": "IC50", "setting": "DRB1*0404", "value": 181, "unit": "nM"}]}
